EC50 and CC50 data for 24 molecules are collected here from patent publication US8729089B2 (Gilead Sciences, Inc., priority 2006, dated 2014).

Bounds are passed on as bounds.

Series [1] has as its system HCV replicon in human hepatoma Huh-7 cell line. Put plainly: Anti-HCV replicon assay (EC50, luciferase). It is filed as cell-based. Conditions: Hepatitis C virus, Huh-7, 72 h. On the procedure: (§1) The anti-HCV activity of the pyrido[3,2-d]pyrimidine derivatives of this invention was tested in a human hepatoma Huh-7 cell line harboring a HCV replicon. The assay comprised the following steps:
(§2) Step 1: Compound Preparation and Serial Dilution
(§3) • 1. for water soluble pyrido[3,2-d]pyrimidine derivatives, a volume of 500 μL of solution in cell media (DMEM, 10% FBS, P/S, L-Glutamine) was prepared with a concentration being twice the concentration of the starting final serial dilution concentration. A volume of 150 μL of the solution was added to the pre-specified wells in column 1 of a 96-well cell culture plate (PerkinElmer, white plate, cat. #6005181, for EC50 assay; black plate, cat. #6005182 for CC50 assay). The rest of the plate, columns 2-12, was filled with 100 μL of cell media. The plate was then placed on a Precision 2000 Workstation to start the serial dilution. Compounds were diluted three times each step from column 1 to column 10. Column 11 was used as a blank control (no compound added). • 2. for pyrido[3,2-d]pyrimidine derivatives requiring DMSO to dissolve, serial dilution is performed in 50% DMSO in a 384-well plate. A solution containing a compound at 100-fold concentration of the starting final serial dilution concentration was prepared in 50% DMSO and added to the pre-specified wells in column 1 of a polypropylene 384-well plate. The plate was then placed on a Precision 2000 Workstation to start the serial dilution. After the serial dilution, a volume of 2 μL of the solution was transferred from the 384-well plate to a 96-well cell culture plate containing 100 μL of cell media on a Biomek FX Workstation. The DMSO concentration in the final assay condition was 0.5% after cells are added to the plate and the total volume in each well is brought to 200 μL.
(§4) Step 2: to each well of the serial dilution plate prepared above, 100 μL of cell media containing 6000 suspended Huh-7 HCV replicon cells was added with a Multidrop workstation. The plates were incubated for 3 days at 37° C. with 5% CO2.
(§5) • a) for the EC50 assay, the media in a 96-well cell culture plate was aspirated with a Biotek EL405 plate-washer. A volume of 200 μL of a solution containing a 1:1 mixture of cell-lysis buffer (Promega, Luciferase Cell Culture Lysis 5× Reagent, cat. #E1531) and luciferase substrate solution (Promega, Luciferase Assay, cat.#E4550) was added to each well of the plate with Multidrop. The plate was incubated for 30 minutes at room temperature before the luminescence signal was measured with a TopCount plate-reader. • b) for the CC50 assay, a volume of 100 μL of pre-mixed CellTiter-Glo (Promega, cat.#G7572) solution is added directly to the cell culture in each well of the plate and the luminescence signal is measured with a TopCount plate-reader after 10 minutes of incubation at room temperature.
In general terms: Replicon systems follow genome replication, usually without infectious particles.

Series [2] in a line: CC50 assay (CellTiter-Glo) in Huh-7 HCV replicon cells. The class given is cell-based, human. Conditions: human, 3 days incubation, CellTiter-Glo readout. Here is the method: as §1, §2, §3, §4, §5
For orientation: In ATP-based viability assays light output follows the ATP content of the culture.

What is called EC50 is the concentration at which the effect is half-maximal. A high value points to a need for much substance. One may read the CC50 as the concentration that lowers cell viability or growth by half. Low values mean greater toxicity to the cells, high ones lower toxicity to the cells. Consider `CCN(CC)c1nc(NCc2ccc(S(N)(=O)=O)cc2)nc2ccc(-c3ccc(F)cc3)nc12` [Example 59, 4-{[4-Diethylamino-6-(4-fluoro-phenyl)-pyrido[3,2-d]pyrimidin-2-ylamino]-methyl}-benzenesulfonamide], for which the EC50 in series [1] is < 100 nM. Besides, the CC50 at 3 days in series [2] fell in the range of 5 to 25 µM.

Turning to `Fc1ccc(-c2ccc3nc(NCC(F)(F)F)nc(NCC(F)(F)F)c3n2)cc1` [Example 60, 6-(4-Fluoro-phenyl)-2,4-bis(2,2,2-trifluoro-ethylamino)-pyrido[3,2-d]pyrimidine], in series [1], the half-maximal effective concentration (EC50) is < 100 nM. Besides, the CC50 at 3 days in series [2] was > 25 µM.

With `CCOc1nc(NCc2ccc(F)cc2)nc2ccc(-c3cnc(N)cn3)nc12` [Example 62, [6-(5-Amino-pyrazin-2-yl)-4-ethoxy-pyrido[3,2-d]pyrimidin-2-yl]-(4-fluoro-benzyl)-amine], the half-maximal effective concentration (EC50) in series [1] was < 100 nM. For the same molecule, the cytotoxic concentration (CC50) at 3 days in series [2] was > 25 µM.

With `CCOc1nc(NCc2ccc(F)cc2)nc2ccc(-c3ccc(C(=O)NCCN(C)C)cc3)nc12` [Example 63, N-(2-Dimethylamino-ethyl)-4-[4-ethoxy-2-(4-fluoro-benzylamino)-pyrido[3,2-d]pyrimidin-6-yl]-benzamide], the EC50 in series [1] is < 100 nM. Besides, in series [2], the CC50 at 3 days was < 5 µM.

Regarding `CCOc1nc(NCc2ccc(F)cc2)nc2ccc(-c3ccc(F)c(Cl)c3)nc12` [Example 64, [6-(3-Chloro-4-fluoro-phenyl)-4-ethoxy-pyrido[3,2-d]pyrimidin-2-yl]-(4-fluoro-benzyl)-amine], in series [1], the EC50 was < 100 nM. For the same molecule, the 50% cytotoxic concentration (CC50) at 3 days in series [2] lay within 5 to 25 µM.

For the molecule `CCOc1nc(NCc2ccc(F)cc2)nc2ccc(-c3ccc(C(=O)NC4CC4)cc3)nc12` [Example 65, N-Cyclopropyl-4-[4-ethoxy-2-(4-fluoro-benzylamino)-pyrido[3,2-d]pyrimidin-6-yl]-benzamide], the EC50 in series [1] was < 100 nM. For the same molecule, in series [2], the CC50 at 3 days is > 25 µM.

Regarding `CCOc1nc(NCc2ccc(F)cc2)nc2ccc(-c3cccc(NS(C)(=O)=O)c3)nc12` [Example 66, N-{3-[4-Ethoxy-2-(4-fluoro-benzylamino)-pyrido[3,2-d]pyrimidin-6-yl]-phenyl}-methanesulfonamide], the EC50 in series [1] is < 100 nM. For the same molecule, in series [2], the CC50 at 3 days is < 5 µM.

With `CCOc1nc(NCc2ccc(F)cc2)nc2ccc(-c3ccc(NC(=O)C4CC4)cc3)nc12` [Example 67, Cyclopropanecarboxylic acid {4-[4-ethoxy-2-(4-fluoro-benzylamino)-pyrido[3,2-d]pyrimidin-6-yl]-phenyl}-amide], in series [1], the EC50 is < 100 nM. The molecule also gave a half-maximal cytotoxic concentration (CC50) at 3 days in series [2] of 5 to 25 µM.

For the molecule `CCOc1nc(NCc2ccc(F)cc2)nc2ccc(-c3ccc(F)c(S(N)(=O)=O)c3)nc12` [Example 68, 5-[4-Ethoxy-2-(4-fluoro-benzylamino)-pyrido[3,2-d]pyrimidin-6-yl]-2-fluoro-benzenesulfonamide], the concentration giving a half-maximal response (EC50) in series [1] is < 100 nM. This molecule also registered a CC50 at 3 days in series [2] of 5 to 25 µM.

On to `CCOc1nc(NCc2ccc(F)cc2)nc2ccc(-c3ccc(NC(=O)CO)cc3)nc12` [Example 69, N-{4-[4-Ethoxy-2-(4-fluoro-benzylamino)-pyrido[3,2-d]pyrimidin-6-yl]-phenyl}-2-hydroxy-acetamide], for which the concentration for a half-maximal effect (EC50) in series [1] was < 100 nM. Further, in series [2], the cytotoxic concentration (CC50) at 3 days is > 25 µM.

Consider `CCOc1nc(NCc2ccc(F)cc2)nc2ccc(-c3ccc(NC(=O)CN)cc3)nc12` [Example 70, 2-Amino-N-{4-[4-ethoxy-2-(4-fluoro-benzylamino)-pyrido[3,2-d]pyrimidin-6-yl]-phenyl}-acetamide], for which the EC50 in series [1] is < 100 nM. Moreover, in series [2], the cytotoxic concentration (CC50) at 3 days is < 5 µM.

For the molecule `CCOc1nc(NCc2ccc(F)cc2)nc2ccc(-c3ccc(NC(=O)NCCN4CCOCC4)cc3)nc12` [Example 71, 1-{4-[4-Ethoxy-2-(4-fluoro-benzylamino)-pyrido[3,2-d]pyrimidin-6-yl]-phenyl}-3-(2-morpholin-4-yl-ethyl)-urea], the EC50 in series [1] was < 100 nM. Besides, the CC50 at 3 days in series [2] was < 5 µM.

Take `CCOc1nc(NCc2ccc(F)cc2)nc2ccc(-c3ccc(NC(=O)N4CCOCC4)cc3)nc12` [Example 72, Morpholine-4-carboxylic acid {4-[4-ethoxy-2-(4-fluoro-benzylamino)-pyrido[3,2-d]pyrimidin-6-yl]-phenyl}-amide]: the concentration for a half-maximal effect (EC50) in series [1] was < 100 nM. In addition, the half-maximal cytotoxic concentration (CC50) at 3 days in series [2] lay in the range of 5 to 25 µM.

Regarding `CCOc1nc(NCc2ccc(F)cc2)nc2ccc(-c3ccc(NC(=O)N4CCCC4)cc3)nc12` [Example 73, Pyrrolidine-1-carboxylic acid {4-[4-ethoxy-2-(4-fluoro-benzylamino)-pyrido[3,2-d]pyrimidin-6-yl]-phenyl}-amide], in series [1], the concentration giving a half-maximal response (EC50) is < 100 nM. Besides, in series [2], the cytotoxic concentration (CC50) at 3 days lay in the range of 5 to 25 µM.

For `CCOc1nc(NCc2ccc(F)cc2)nc2ccc(-c3ccc(NC(=O)NC4CC4)cc3)nc12` [Example 74, 1-Cyclopropyl-3-{4-[4-ethoxy-2-(4-fluoro-benzylamino)-pyrido[3,2-d]pyrimidin-6-yl]-phenyl}-urea], in series [1], the EC50 is < 100 nM. The CC50 at 3 days in series [2] was 5 to 25 µM.

Consider `CCOc1nc(NCc2ccc(F)cc2)nc2ccc(-c3ccc(NC(N)=O)cc3)nc12` [Example 75, {4-[4-Ethoxy-2-(4-fluoro-benzylamino)-pyrido[3,2-d]pyrimidin-6-yl]-phenyl}-urea], for which the half-maximal effective concentration (EC50) in series [1] was < 100 nM. Also, in series [2], the CC50 at 3 days was > 25 µM.

Consider `CCOc1nc(NCc2ccc(F)cc2)nc2ccc(-c3ccc(N4CC(O)CC4=O)cc3)nc12` (stereo not drawn) [Example 76, 1-{4-[4-Ethoxy-2-(4-fluoro-benzylamino)-pyrido[3,2-d]pyrimidin-6-yl]-phenyl}-4-hydroxy-pyrrolidin-2-one], for which the EC50 in series [1] is < 100 nM. This molecule also came in with a CC50 at 3 days in series [2] of 5 to 25 µM.

For `CCOc1nc(NCc2ccc(F)cc2)nc2ccc(-c3ccc4[nH]ncc4c3)nc12` [Example 77, [4-Ethoxy-6-(1H-indazol-5-yl)-pyrido[3,2-d]pyrimidin-2-yl]-(4-fluoro-benzyl)-amine], the 50% effective concentration (EC50) in series [1] is < 100 nM. Also, the CC50 at 3 days in series [2] was in the range of 5 to 25 µM.

Consider `CCOc1nc(NCc2ccc(F)cc2)nc2ccc(-c3ccc4c(c3)CC(=O)N4)nc12` [Example 78, 5-[4-Ethoxy-2-(4-fluoro-benzylamino)-pyrido[3,2-d]pyrimidin-6-yl]-1,3-dihydro-indol-2-one], for which the EC50 in series [1] was < 100 nM. The same molecule gave a CC50 at 3 days in series [2] of 5 to 25 µM.

Turning to `CCOc1nc(NCc2ccc(F)cc2)nc2ccc(-c3ccc(NC(=O)C4CC4)nc3)nc12` [Example 79, Cyclopropanecarboxylic acid {5-[4-ethoxy-2-(4-fluoro-benzylamino)-pyrido[3,2-d]pyrimidin-6-yl]-pyridin-2-yl}-amide], the EC50 in series [1] was < 100 nM. For the same molecule, the 50% cytotoxic concentration (CC50) at 3 days in series [2] was 5 to 25 µM.

As for `CCOc1nc(NCc2ccc(F)cc2)nc2ccc(-c3cnc(NC(=O)C4CC4)nc3)nc12` [Example 80, Cyclopropanecarboxylic acid {5-[4-ethoxy-2-(4-fluoro-benzylamino)-pyrido[3,2-d]pyrimidin-6-yl]-pyrimidin-2-yl}-amide], the concentration for a half-maximal effect (EC50) in series [1] was < 100 nM. In series [2], this molecule registered a half-maximal cytotoxic concentration (CC50) at 3 days of 5 to 25 µM.

As for `CCOc1nc(NCc2ccc(F)cc2)nc2ccc(-c3cccc(NS(=O)(=O)CCN4CCCC4)c3)nc12` [Example 81, 2-Pyrrolidin-1-yl-ethanesulfonic acid {3-[4-ethoxy-2-(4-fluoro-benzylamino)-pyrido[3,2-d]pyrimidin-6-yl]-phenyl}-amide], the EC50 in series [1] was < 100 nM. In addition, the CC50 at 3 days in series [2] was < 5 µM.

Consider `CCOc1nc(NCc2ccc(F)cc2)nc2ccc(-c3cccc(NS(=O)(=O)C4CC4)c3)nc12` [Example 82, Cyclopropanesulfonic acid {3-[4-ethoxy-2-(4-fluoro-benzylamino)-pyrido[3,2-d]pyrimidin-6-yl]-phenyl}-amide], for which the concentration giving a half-maximal response (EC50) in series [1] was < 100 nM. Also, in series [2], the 50% cytotoxic concentration (CC50) at 3 days is < 5 µM.

Consider `CCOc1nc(NCc2ccc(F)cc2)nc2ccc(-c3ccc(S(N)(=O)=O)cc3)nc12` [Example 83, 4-[4-Ethoxy-2-(4-fluoro-benzylamino)-pyrido[3,2-d]pyrimidin-6-yl]-benzenesulfonamide], for which the EC50 in series [1] was < 100 nM. The molecule also registered a 50% cytotoxic concentration (CC50) at 3 days in series [2] of 5 to 25 µM.
